One test addresses JAK1 (Homo sapiens (Human), UniProt P23458). Nature of the test: JAK1 enzyme assay (Z'-LYTE). The format is biochemical. The settings on record: 75 μM ATP; mean of at least 2 experiments; read-out: JAK1 enz pIC50 (converted).
For a further test, the target named is AURKB (Aurora B) (Homo sapiens (Human), UniProt Q96GD4). Nature of the test: Aurora-B enzyme assay (Z'-LYTE). It is filed as biochemical. The settings on record: 75 μM ATP; mean of at least 2 experiments; read-out: AurB enz pIC50 (converted).
The target in another test is JAK2 (Homo sapiens (Human), UniProt O60674). Kind of test: JAK2 enzyme assay (Z'-LYTE). It is filed as biochemical. To be noted: 25 μM ATP; mean of at least 2 experiments; read-out: JAK2 enz pIC50 (converted).
A further test deals with AURKA (Aurora A) (Homo sapiens (Human), UniProt O14965). Kind of test: Aurora-A enzyme assay (Z'-LYTE). It is filed as biochemical. The settings on record: 10 μM ATP; mean of at least 2 experiments; read-out: AurA enz pIC50 (converted).
The next test deals with JAK3 (Homo sapiens (Human), UniProt P52333). Nature of the test: JAK3 enzyme assay (Z'-LYTE). To be noted: 10 μM ATP; mean of at least 2 experiments; read-out: JAK3 enz pIC50 (converted). The format is biochemical. The text has this: The 2× AURKB (Aurora B)/Ser/[…]
The target in another test is TTK (Homo sapiens (Human), UniProt P33981). Kind of test: TTK enzyme assay (LanthaScreen Eu Kinase Binding assay). To be noted: mean of at least 2 experiments. The text has this:
The LanthaScreen® Eu Kinase Binding assay format uses binding of an Alexa Fluor® conjugate or “tracer” to a kinase, which is detected by addition of a Eu-labeled anti-tag antibody. […] The degree of FRET measured in the assay is used to determine the binding of a compound.
Plates were then read using a fluorescence plate reader.
In general terms: In TR-FRET formats the signal depends on donor and acceptor labels being close together.

Test [1] addresses T1, DNAPK (Homo sapiens (Human), UniProt P78527). Nature of the test: DNAPK cellular potency assay (DNA-PK cell), pS2056-DNAPK ELISA in irradiated A549 cells. The format is cell-based. The settings on record: A549 cell line, 8 Gy radiation, mean of at least 2 experiments, read-out: DNA-PK cell pIC50 (converted). In general terms: In an ELISA, binding on a coated surface is turned into a signal by an enzyme label.

Test [2] deals with T1, DNAPK. The format is biochemical. The settings on record: mean of at least 2 experiments; 18 μM ATP; read-out: DNA-PK enz pIC50 (converted). The text has this:
The following assays were used to measure the effects of the compounds described herein: a) DNAPK enzyme potency assay; b) DNAPK cellular potency assay. During the description of the assays, generally: • i. The following abbreviations have been used; DMSO=Dimethyl Sulphoxide; DTT=Dithiothreitol; EDTA=Ethylenediaminetetraacetic Acid, TR-FRET=Time Resolved Fluorescence Resonance Energy Transfer, ATP=Adenosine triphosphate, DTT=Dithiothreitol, DNA=Deoxyribonucleic acid, HEPES=(2-hydroxyethyl)-1-piperazineethanesulfonic acid • ii.

The record followed here is patent publication US10407446B2, “Amino-triazolopyridine compounds and their use in treating cancer” (AstraZeneca AB, priority 2016, dated 2019).

Like-named read-outs stand apart in the source and are kept apart here.

Chain of AURKB (Aurora B) (Q96GD4 whole entry): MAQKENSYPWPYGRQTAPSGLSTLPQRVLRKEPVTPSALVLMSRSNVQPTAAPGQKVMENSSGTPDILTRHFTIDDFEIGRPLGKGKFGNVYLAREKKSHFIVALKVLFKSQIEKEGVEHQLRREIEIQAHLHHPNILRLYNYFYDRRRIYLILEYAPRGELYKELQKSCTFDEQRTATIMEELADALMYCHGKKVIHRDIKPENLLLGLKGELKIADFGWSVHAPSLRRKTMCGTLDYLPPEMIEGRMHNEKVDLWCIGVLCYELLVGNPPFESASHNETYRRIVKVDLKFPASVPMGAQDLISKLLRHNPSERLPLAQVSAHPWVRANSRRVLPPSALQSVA
Chain of JAK3 (P52333 whole entry): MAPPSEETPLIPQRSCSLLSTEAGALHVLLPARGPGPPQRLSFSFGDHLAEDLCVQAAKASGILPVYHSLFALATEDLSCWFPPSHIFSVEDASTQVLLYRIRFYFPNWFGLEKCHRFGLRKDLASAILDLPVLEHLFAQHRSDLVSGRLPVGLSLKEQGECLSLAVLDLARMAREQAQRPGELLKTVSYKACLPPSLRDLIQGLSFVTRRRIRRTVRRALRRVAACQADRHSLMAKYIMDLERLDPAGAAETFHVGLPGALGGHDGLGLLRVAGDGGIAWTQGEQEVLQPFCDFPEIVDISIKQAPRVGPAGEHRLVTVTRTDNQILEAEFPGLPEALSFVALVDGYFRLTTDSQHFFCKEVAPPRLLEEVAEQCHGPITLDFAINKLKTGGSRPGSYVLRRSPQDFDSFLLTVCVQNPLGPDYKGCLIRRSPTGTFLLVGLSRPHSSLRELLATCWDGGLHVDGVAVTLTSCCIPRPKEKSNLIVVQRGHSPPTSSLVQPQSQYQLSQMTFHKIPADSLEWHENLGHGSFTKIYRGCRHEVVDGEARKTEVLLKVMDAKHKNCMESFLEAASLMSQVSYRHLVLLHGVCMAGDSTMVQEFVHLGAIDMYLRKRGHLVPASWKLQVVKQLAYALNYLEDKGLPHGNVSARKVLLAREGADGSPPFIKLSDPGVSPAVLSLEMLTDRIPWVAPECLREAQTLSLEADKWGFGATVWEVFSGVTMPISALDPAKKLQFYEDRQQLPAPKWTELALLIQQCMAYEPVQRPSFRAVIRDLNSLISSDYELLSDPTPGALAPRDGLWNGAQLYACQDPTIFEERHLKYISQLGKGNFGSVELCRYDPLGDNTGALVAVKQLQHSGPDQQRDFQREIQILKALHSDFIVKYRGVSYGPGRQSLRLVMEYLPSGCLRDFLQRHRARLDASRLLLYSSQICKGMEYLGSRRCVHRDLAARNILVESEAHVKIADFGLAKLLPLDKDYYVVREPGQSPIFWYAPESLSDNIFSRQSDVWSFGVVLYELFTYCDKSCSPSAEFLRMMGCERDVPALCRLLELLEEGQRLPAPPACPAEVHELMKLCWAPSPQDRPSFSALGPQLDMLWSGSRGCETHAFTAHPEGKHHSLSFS
Chain of JAK2 (O60674 whole entry): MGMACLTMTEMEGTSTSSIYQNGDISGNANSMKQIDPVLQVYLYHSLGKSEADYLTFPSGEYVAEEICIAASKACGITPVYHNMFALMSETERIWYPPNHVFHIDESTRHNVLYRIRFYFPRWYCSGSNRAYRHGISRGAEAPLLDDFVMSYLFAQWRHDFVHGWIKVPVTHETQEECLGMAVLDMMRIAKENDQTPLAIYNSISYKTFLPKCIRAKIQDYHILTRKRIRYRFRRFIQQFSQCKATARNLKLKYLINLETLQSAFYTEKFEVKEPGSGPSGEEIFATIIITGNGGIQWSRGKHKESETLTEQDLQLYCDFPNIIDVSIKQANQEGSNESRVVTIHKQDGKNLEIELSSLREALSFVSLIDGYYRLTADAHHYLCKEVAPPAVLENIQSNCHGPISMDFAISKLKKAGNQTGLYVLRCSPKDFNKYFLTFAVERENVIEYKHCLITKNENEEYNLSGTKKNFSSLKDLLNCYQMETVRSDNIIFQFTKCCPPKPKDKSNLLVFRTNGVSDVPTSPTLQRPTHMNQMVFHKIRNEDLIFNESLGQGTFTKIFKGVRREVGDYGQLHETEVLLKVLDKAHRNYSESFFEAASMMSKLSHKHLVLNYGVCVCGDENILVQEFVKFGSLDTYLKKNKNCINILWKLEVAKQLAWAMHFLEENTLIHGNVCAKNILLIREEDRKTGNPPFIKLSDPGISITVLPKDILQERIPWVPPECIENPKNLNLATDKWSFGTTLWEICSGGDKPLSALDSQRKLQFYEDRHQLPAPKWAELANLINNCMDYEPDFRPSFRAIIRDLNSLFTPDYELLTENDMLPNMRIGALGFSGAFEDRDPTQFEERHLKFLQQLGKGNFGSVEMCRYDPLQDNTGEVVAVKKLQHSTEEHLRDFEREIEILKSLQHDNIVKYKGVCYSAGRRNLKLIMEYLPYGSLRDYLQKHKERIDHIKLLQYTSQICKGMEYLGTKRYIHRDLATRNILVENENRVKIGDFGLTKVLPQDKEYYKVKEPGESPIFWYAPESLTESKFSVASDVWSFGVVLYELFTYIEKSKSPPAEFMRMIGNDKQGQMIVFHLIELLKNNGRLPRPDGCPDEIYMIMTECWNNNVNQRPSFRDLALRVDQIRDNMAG
Chain of TTK (P33981 whole entry): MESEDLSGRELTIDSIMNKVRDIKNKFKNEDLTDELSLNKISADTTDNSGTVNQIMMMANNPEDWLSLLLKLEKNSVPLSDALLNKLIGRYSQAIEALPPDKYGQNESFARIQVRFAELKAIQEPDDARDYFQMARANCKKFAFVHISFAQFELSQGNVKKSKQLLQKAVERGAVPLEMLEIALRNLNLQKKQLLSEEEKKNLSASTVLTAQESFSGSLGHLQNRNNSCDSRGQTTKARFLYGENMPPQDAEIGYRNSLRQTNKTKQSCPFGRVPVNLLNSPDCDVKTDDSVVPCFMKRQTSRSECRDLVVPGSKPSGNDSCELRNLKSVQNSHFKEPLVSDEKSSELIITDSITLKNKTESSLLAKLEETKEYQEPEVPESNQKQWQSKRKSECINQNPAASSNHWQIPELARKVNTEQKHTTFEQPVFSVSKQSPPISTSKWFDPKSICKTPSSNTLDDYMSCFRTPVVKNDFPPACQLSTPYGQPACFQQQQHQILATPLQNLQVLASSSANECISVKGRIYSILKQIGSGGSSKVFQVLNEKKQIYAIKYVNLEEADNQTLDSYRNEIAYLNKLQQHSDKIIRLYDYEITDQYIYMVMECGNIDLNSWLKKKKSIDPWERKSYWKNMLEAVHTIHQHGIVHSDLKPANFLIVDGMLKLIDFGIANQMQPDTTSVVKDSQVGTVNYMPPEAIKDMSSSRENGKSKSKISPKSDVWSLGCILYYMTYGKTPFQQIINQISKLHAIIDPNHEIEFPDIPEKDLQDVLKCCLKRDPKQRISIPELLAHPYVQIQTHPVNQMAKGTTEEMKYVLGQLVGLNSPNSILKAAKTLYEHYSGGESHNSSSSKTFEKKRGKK
Chain of JAK1 (P23458 whole entry): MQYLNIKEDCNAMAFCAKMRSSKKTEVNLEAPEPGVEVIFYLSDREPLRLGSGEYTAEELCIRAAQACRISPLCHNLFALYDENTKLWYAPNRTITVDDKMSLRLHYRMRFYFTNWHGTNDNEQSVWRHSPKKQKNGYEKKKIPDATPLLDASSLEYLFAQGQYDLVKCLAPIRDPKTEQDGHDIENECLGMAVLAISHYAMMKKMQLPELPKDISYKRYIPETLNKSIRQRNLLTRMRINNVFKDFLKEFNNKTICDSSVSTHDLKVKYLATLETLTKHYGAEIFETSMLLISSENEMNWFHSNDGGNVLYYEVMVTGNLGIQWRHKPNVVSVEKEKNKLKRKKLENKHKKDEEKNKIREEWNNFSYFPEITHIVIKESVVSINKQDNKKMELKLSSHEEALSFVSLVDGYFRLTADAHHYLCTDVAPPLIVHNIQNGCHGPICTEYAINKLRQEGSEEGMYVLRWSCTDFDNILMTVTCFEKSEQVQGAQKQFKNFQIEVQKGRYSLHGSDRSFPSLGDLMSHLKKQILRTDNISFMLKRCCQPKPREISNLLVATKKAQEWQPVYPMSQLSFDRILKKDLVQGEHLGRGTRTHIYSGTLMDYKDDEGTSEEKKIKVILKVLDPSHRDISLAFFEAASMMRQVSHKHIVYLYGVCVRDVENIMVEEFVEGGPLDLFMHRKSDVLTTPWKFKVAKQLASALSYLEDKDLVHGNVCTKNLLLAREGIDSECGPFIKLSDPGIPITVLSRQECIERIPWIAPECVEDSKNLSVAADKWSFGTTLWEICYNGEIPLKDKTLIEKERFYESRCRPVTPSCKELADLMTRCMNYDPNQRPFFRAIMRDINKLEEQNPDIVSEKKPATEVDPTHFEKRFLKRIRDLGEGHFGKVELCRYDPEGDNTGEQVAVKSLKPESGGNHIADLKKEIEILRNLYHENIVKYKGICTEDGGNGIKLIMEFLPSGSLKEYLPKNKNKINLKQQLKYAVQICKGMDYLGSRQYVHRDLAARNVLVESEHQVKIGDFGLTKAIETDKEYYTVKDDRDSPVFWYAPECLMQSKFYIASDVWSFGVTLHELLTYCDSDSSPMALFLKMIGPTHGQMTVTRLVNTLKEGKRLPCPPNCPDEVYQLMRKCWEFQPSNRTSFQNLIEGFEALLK
Chain of AURKA (Aurora A) (O14965 whole entry): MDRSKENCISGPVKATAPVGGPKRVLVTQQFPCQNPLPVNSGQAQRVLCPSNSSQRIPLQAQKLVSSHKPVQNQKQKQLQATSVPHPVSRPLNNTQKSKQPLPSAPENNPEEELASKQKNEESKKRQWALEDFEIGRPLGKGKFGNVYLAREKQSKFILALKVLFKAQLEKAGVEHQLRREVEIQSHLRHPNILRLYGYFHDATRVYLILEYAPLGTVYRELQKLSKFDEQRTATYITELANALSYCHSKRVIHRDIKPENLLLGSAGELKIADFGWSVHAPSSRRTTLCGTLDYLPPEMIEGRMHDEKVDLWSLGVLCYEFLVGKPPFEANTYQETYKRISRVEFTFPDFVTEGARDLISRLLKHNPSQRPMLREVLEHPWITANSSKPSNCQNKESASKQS
Protocol for AURKA (Aurora A): (§1) d) Aurora-A, Aurora-B, JAK1, JAK2, JAK3 Enzyme Assays
(§2) The inhibitory activity of compounds against AURKA, AURKB, JAK1, JAK2 and JAK3 was determined in Z′-LYTE® assays run by ThermoFisher Scientific as part of their SelectScreen® Biochemical Kinase Profiling Service. The Z′-LYTE® biochemical assay format employs a fluorescence-based, coupled-enzyme format and is based on the differential sensitivity of phosphorylated and non-phosphorylated peptides to proteolytic cleavage. The peptide substrate is labeled with two fluorophores—one at each end—that make up a FRET pair. In the primary reaction, the kinase transfers the gamma-phosphate of ATP to a single tyrosine, serine or threonine residue in a synthetic FRET-peptide. In the secondary reaction, a site-specific protease recognises and cleaves non-phosphorylated FRET-peptides. Phosphorylation of FRET-peptides suppresses cleavage by the Development Reagent. Cleavage disrupts FRET between the donor (i.e., coumarin) and acceptor (i.e., fluorescein) fluorophores on the FRET-peptide, whereas uncleaved, phosphorylated FRET-peptides maintain FRET. A ratiometric method, which calculates the ratio (the Emission Ratio) of donor emission to acceptor emission after excitation of the donor fluorophore at 400 nm, is used to quantitate reaction progress. Both cleaved and uncleaved FRET-peptides contribute to the fluorescence signals and therefore to the Emission Ratio. The extent of phosphorylation of the FRET-peptide can be calculated from the Emission Ratio.
(§3) 2.4 μL Kinase Buffer (50 mM HEPES pH 7.5, 0.01% BRIJ-35, 10 mM MgCl2, 1 mM EGTA), 5 μL 2× Peptide/Kinase mixture (detailed below for each kinase) and 2.5 μL 4× ATP Solution (prepared in Kinase Buffer) were added separately to the compound plates, placed on a plate shaker for 30 sec, and then incubated for 60 mins at room temperature. […] Assay plates were placed on a plate shaker for 30 sec, incubated for 60 mins at room temperature, and then read using a fluorescence plate reader.
Protocol for AURKB (Aurora B): as §1, §2, §3
Protocol for JAK1: as §1, §2, §3
Protocol for JAK2: as §1, §2, §3

Take `Cc1cc2ncnn2cc1Nc1ncc2c(n1)n([C@H]1CC[C@H](O)CC1)c(=O)n2C` [Example 1, 9-((1r,4r)-4-hydroxycyclohexyl)-7-methyl-2-((7-methyl-[1,2,4]triazolo[1,5-a]pyridin-6-yl)amino)-7,9-dihydro-8H-purin-8-one]: the IC50 at JAK1, at AURKB (Aurora B), on JAK2, at AURKA (Aurora A) and on JAK3 was > 10 µM each time. For the same molecule, at TTK, the “TTK enz pIC50” value is 5.5.

As to `Cc1cc2ncnn2cc1Nc1ncc2c(n1)n([C@H]1CC[C@@H](O)CC1)c(=O)n2C` [Example 2, 9-((1s,4s)-4-hydroxycyclohexyl)-7-methyl-2-((7-methyl-[1,2,4]triazolo[1,5-a]pyridin-6-yl)amino)-7,9-dihydro-8H-purin-8-one], the IC50 at JAK1, at AURKB (Aurora B), on JAK2, on AURKA (Aurora A) and at JAK3 was > 10 µM in each case. For the same molecule, the “TTK enz pIC50” value at TTK came to 6.1.

Regarding `Cc1cc2ncnn2cc1Nc1ncc2c(n1)n(C1CCOCC1)c(=O)n2C` [Example 3, 7-methyl-2-((7-methyl-[1,2,4]triazolo[1,5-a]pyridin-6-yl)amino)-9-(tetrahydro-2H-pyran-4-yl)-7,9-dihydro-8H-purin-8-one], the IC50 on JAK1, on AURKB (Aurora B), at JAK2, at AURKA (Aurora A) and on JAK3 was > 10 µM in each case.

As to `Cc1nc2cc(C)c(Nc3ncc4c(n3)n(C3CCOCC3)c(=O)n4C)cn2n1` [Example 4, 2-((2,7-dimethyl-[1,2,4]triazolo[1,5-a]pyridin-6-yl)amino)-7-methyl-9-(tetrahydro-2H-pyran-4-yl)-7,9-dihydro-8H-purin-8-one], the IC50 was > 10 µM at JAK1; 0.158 µM at DNAPK [1]; 0.00126 µM at DNAPK [2]; > 10 µM at AURKB (Aurora B); > 10 µM on JAK2; > 10 µM on AURKA (Aurora A). In addition, the IC50 on JAK3 is > 10 µM. In addition, the “TTK enz pIC50” value at TTK is 5.1.

Take `CO[C@H]1CC[C@@H](n2c(=O)n(C)c3cnc(Nc4cn5ncnc5cc4C)nc32)CC1` [Example 5, 9-((1s,4s)-4-methoxycyclohexyl)-7-methyl-2-((7-methyl-[1,2,4]triazolo[1,5-a]pyridin-6-yl)amino)-7,9-dihydro-8H-purin-8-one]: the IC50 on JAK1 is > 10 µM; at DNAPK [1] it was 0.126 µM; at DNAPK [2], 0.001 µM; at AURKB (Aurora B), > 10 µM; at JAK2, > 10 µM; on AURKA (Aurora A) it was > 10 µM. On JAK3, the IC50 was > 10 µM. In addition, on TTK, the “TTK enz pIC50” value is given as 5.3.

For the molecule `CO[C@H]1CC[C@H](n2c(=O)n(C)c3cnc(Nc4cn5ncnc5cc4C)nc32)CC1` [Example 6, 9-((1r,4r)-methoxycyclohexyl)-7-methyl-2-((7-methyl-[1,2,4]triazolo[1,5-a]pyridin-6-yl)amino)-7,9-dihydro-8H-purin-8-one], the IC50 is > 10 µM at JAK1; 0.0398 µM at DNAPK [1]; 0.000251 µM at DNAPK [2]; > 10 µM at AURKB (Aurora B); > 10 µM at JAK2; > 10 µM on AURKA (Aurora A). Further, at JAK3, the IC50 was > 10 µM. Besides, the “TTK enz pIC50” value at TTK amounted to 5.9.

For `Cc1cc2ncnn2cc1Nc1ncc2c(n1)n([C@H]1CCCOC1)c(=O)n2C` [Example 7, (S)-7-methyl-2-((7-methyl-[1,2,4]triazolo[1,5-a]pyridin-6-yl)amino)-9-(tetrahydro-2H-pyran-3-yl)-7,9-dihydro-8H-purin-8-one], the IC50 at JAK1 is > 10 µM; at DNAPK [1] it was 0.0501 µM; on DNAPK [2], 0.000158 µM; on AURKB (Aurora B) it was > 10 µM; on JAK2 it was > 10 µM; on AURKA (Aurora A) it was > 10 µM. Further, the IC50 on JAK3 is > 10 µM. Besides, the “TTK enz pIC50” value on TTK is 5.2.

For the molecule `Cc1cc2ncnn2cc1Nc1ncc2c(n1)n([C@@H]1CCCOC1)c(=O)n2C` [Example 8, (R)-7-methyl-2-((7-methyl-[1,2,4]triazolo[1,5-a]pyridin-6-yl)amino)-9-(tetrahydro-2H-pyran-3-yl)-7,9-dihydro-8H-purin-8-one], the IC50 at JAK1 is > 10 µM; on DNAPK [1] it was 0.0631 µM; at DNAPK [2], 0.000398 µM; at AURKB (Aurora B), > 10 µM; on JAK2, > 10 µM; at AURKA (Aurora A) it was > 10 µM. For the same molecule, the IC50 at JAK3 was > 10 µM. Also, the “TTK enz pIC50” value on TTK was 5.2.

As for `Cc1cc2ncnn2cc1Nc1ncc2c(n1)n([C@H]1CC[C@](C)(O)CC1)c(=O)n2C` [Example 9, 9-((1r,4r)-4-hydroxy-4-methylcyclohexyl)-7-methyl-2-((7-methyl-[1,2,4]triazolo[1,5-a]pyridin-6-yl)amino)-7,9-dihydro-8H-purin-8-one], the IC50 at JAK1, at AURKB (Aurora B), at JAK2, on AURKA (Aurora A) and at JAK3 was > 10 µM each time.

In the case of `Cc1cc2ncnn2cc1Nc1ncc2c(n1)n([C@H]1CC[C@@](C)(O)CC1)c(=O)n2C` [Example 10, 9-((1s,4s)-4-hydroxy-4-methylcyclohexyl)-7-methyl-2-((7-methyl-[1,2,4]triazolo[1,5-a]pyridin-6-yl)amino)-7,9-dihydro-8H-purin-8-one], the IC50 on JAK1, on AURKB (Aurora B), on JAK2, at AURKA (Aurora A) and on JAK3 was > 10 µM throughout.

With `Cc1cc2ncnn2cc1Nc1ncc2c(n1)n([C@H]1CCOC1)c(=O)n2C` [Example 11, (S)-7-methyl-2-((7-methyl-[1,2,4]triazolo[1,5-a]pyridin-6-yl)amino)-9-(tetrahydrofuran-3-yl)-7,9-dihydro-8H-purin-8-one], the IC50 on JAK1 is > 10 µM; at DNAPK [1], 0.158 µM; at DNAPK [2] it was 0.000501 µM; on AURKB (Aurora B), > 10 µM; at JAK2, > 10 µM; on AURKA (Aurora A), > 10 µM. In addition, the IC50 at JAK3 is > 10 µM; on TTK (read-out: TTK enz pIC50 (converted)) it was > 7.94 µM.

Consider `Cc1cc2ncnn2cc1Nc1ncc2c(n1)n([C@]1(C)CC[C@H](O)CC1)c(=O)n2C` [Example 12, 9-((1s,4s)-4-hydroxy-1-methylcyclohexyl)-7-methyl-2-((7-methyl-[1,2,4]triazolo[1,5-a]pyridin-6-yl)amino)-7,9-dihydro-8H-purin-8-one], for which the IC50 at JAK1 was > 10 µM; at DNAPK [1] it was 0.0398 µM; at DNAPK [2] it was 0.0002 µM; on AURKB (Aurora B), > 10 µM; at JAK2, > 10 µM; on AURKA (Aurora A) it was > 10 µM. The IC50 on JAK3 is > 10 µM. Further, the “TTK enz pIC50” value on TTK worked out at 5.8.

On to `Cc1cc2ncnn2cc1Nc1ncc2c(n1)n(C1CCCCC1)c(=O)n2C` [Example 13, 9-cyclohexyl-7-methyl-2-((7-methyl-[1,2,4]triazolo[1,5-a]pyridin-6-yl)amino)-7,9-dihydro-8H-purin-8-one], for which the IC50 on JAK1 is > 10 µM; at AURKB (Aurora B) it was > 10 µM; at JAK2, > 10 µM; on AURKA (Aurora A), 3.98 µM; at JAK3, > 10 µM. For the same molecule, on TTK, the “TTK enz pIC50” value turned out to be 6.3.
